Assay results: PubChem BioAssay (NCI)
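96-well plates; 48 h exposure; 5 concentrations. Endpoints by linear interpolation between flanking doses. Not reached: highest tested concentration assigned. At the GI50, growth is halved. At the TGI there is no net growth.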

What was measured:
Test in all cases: NCI tumour cell line growth inhibition, 48 h
CAKI-1 renal = tested on: CAKI-1 renal
HCT-116 colon = tested on: HCT-116 colon
NCI-H226 lung = tested on: NCI-H226 lung
NCI-H23 lung = tested on: NCI-H23 lung
SR leukemia = tested on: SR leukemia
SW-620 colon = tested on: SW-620 colon
DU-145 prostate = tested on: DU-145 prostate
T-47D breast = tested on: T-47D breast
OVCAR-5 ovarian = tested on: OVCAR-5 ovarian
MALME-3M melanoma = tested on: MALME-3M melanoma
NCI-H460 lung = tested on: NCI-H460 lung
K-562 leukemia = tested on: K-562 leukemia
SF-295 CNS = tested on: SF-295 CNS
MOLT-4 leukemia = tested on: MOLT-4 leukemia
RXF 393 renal = tested on: RXF 393 renal
RPMI-8226 leukemia = tested on: RPMI-8226 leukemia
KM12 colon = tested on: KM12 colon
TK-10 renal = tested on: TK-10 renal
PC-3 prostate = tested on: PC-3 prostate
BT-549 breast = tested on: BT-549 breast
SN12C renal = tested on: SN12C renal
ACHN renal = tested on: ACHN renal
SF-539 CNS = tested on: SF-539 CNS
MDA-MB-231 breast = tested on: MDA-MB-231 breast
SNB-75 CNS = tested on: SNB-75 CNS
SK-MEL-5 melanoma = tested on: SK-MEL-5 melanoma
OVCAR-3 ovarian = tested on: OVCAR-3 ovarian
HS 578T breast = tested on: HS 578T breast
MDA-MB-435 = tested on: MDA-MB-435
HL-60(TB) leukemia = tested on: HL-60(TB) leukemia
MDA-MB-468 breast = tested on: MDA-MB-468 breast
U251 CNS = tested on: U251 CNS
UACC-257 melanoma = tested on: UACC-257 melanoma
M14 melanoma = tested on: M14 melanoma
OVCAR-4 ovarian = tested on: OVCAR-4 ovarian
EKVX NSCLC = tested on: EKVX NSCLC
A549 NSCLC = tested on: A549 NSCLC
UACC-62 melanoma = tested on: UACC-62 melanoma
CCRF-CEM leukemia = tested on: CCRF-CEM leukemia
SK-OV-3 ovarian = tested on: SK-OV-3 ovarian
HCT-15 colon = tested on: HCT-15 colon
COLO 205 colon = tested on: COLO 205 colon
SNB-19 CNS = tested on: SNB-19 CNS
SK-MEL-2 melanoma = tested on: SK-MEL-2 melanoma
NCI/ADR-RES ovarian = tested on: NCI/ADR-RES ovarian
IGROV1 ovarian = tested on: IGROV1 ovarian
HT29 colon = tested on: HT29 colon
HOP-62 NSCLC = tested on: HOP-62 NSCLC
SF-268 CNS = tested on: SF-268 CNS
A498 renal = tested on: A498 renal
MCF7 breast = tested on: MCF7 breast
786-0 renal = tested on: 786-0 renal
UO-31 renal = tested on: UO-31 renal
OVCAR-8 ovarian = tested on: OVCAR-8 ovarian
NCI-H522 lung = tested on: NCI-H522 lung
SK-MEL-28 melanoma = tested on: SK-MEL-28 melanoma
HOP-92 NSCLC = tested on: HOP-92 NSCLC
HCC-2998 colon = tested on: HCC-2998 colon
LOX IMVI melanoma = tested on: LOX IMVI melanoma

## O=C(N/N=C/c1ccc(Br)o1)c1[nH]c2ccc(Br)cc2c1-c1ccccc1
CAKI-1 renal
  GI50: 424 nM
  TGI: 24.2 µM
HCT-116 colon
  GI50: 311 nM
  TGI: 4.21 µM
NCI-H226 lung
  GI50: 511 nM
  TGI: 6.32 µM
NCI-H23 lung
  GI50: 393 nM
  TGI: 29.3 µM
SR leukemia
  GI50: 345 nM
  TGI: 22.4 µM
SW-620 colon
  GI50: 374 nM
  TGI: 22.9 µM
DU-145 prostate
  GI50: 391 nM
  TGI: 14.7 µM
T-47D breast
  GI50: 4.18 µM
  TGI: > 100 µM
OVCAR-5 ovarian
  GI50: 372 nM
  TGI: 22 µM
MALME-3M melanoma
  GI50: 480 nM
  TGI: 47.5 µM
NCI-H460 lung
  GI50: 326 nM
  TGI: 10.8 µM
K-562 leukemia
  GI50: 339 nM
  TGI: > 44.5 µM
SF-295 CNS
  GI50: 353 nM
  TGI: > 38.6 µM
MOLT-4 leukemia
  GI50: 431 nM
  TGI: > 38.2 µM
RXF 393 renal
  GI50: 443 nM
  TGI: 21.4 µM
RPMI-8226 leukemia
  GI50: 0.415 µM
  TGI: > 100 µM
KM12 colon
  GI50: 352 nM
  TGI: > 44.5 µM
TK-10 renal
  GI50: 5.31 µM
  TGI: > 46.5 µM
PC-3 prostate
  GI50: 398 nM
  TGI: > 53.8 µM
BT-549 breast
  GI50: 379 nM
  TGI: 2.13 µM
SN12C renal
  GI50: 377 nM
  TGI: 14.2 µM
ACHN renal
  GI50: 504 nM
  TGI: 40.1 µM
SF-539 CNS
  GI50: 226 nM
  TGI: 0.562 µM
MDA-MB-231 breast
  GI50: 352 nM
  TGI: 12.3 µM
SNB-75 CNS
  GI50: 464 nM
  TGI: 22.8 µM
SK-MEL-5 melanoma
  GI50: 204 nM
  TGI: 0.424 µM
OVCAR-3 ovarian
  GI50: 415 nM
  TGI: 17.1 µM
HS 578T breast
  GI50: 323 nM
  TGI: 12.8 µM
MDA-MB-435
  GI50: 216 nM
  TGI: 567 nM
HL-60(TB) leukemia
  GI50: 235 nM
  TGI: 0.69 µM
MDA-MB-468 breast
  GI50: 228 nM
  TGI: 0.585 µM
U251 CNS
  GI50: 337 nM
  TGI: 16.9 µM
UACC-257 melanoma
  GI50: 2.69 µM
  TGI: > 100 µM
M14 melanoma
  GI50: 351 nM
  TGI: 30.2 µM
OVCAR-4 ovarian
  GI50: 5.39 µM
  TGI: > 53.3 µM
EKVX NSCLC
  GI50: 0.539 µM
  TGI: 59.9 µM
A549 NSCLC
  GI50: 383 nM
  TGI: 28.7 µM
UACC-62 melanoma
  GI50: 395 nM
  TGI: > 76.5 µM
CCRF-CEM leukemia
  GI50: 311 nM
  TGI: 17.9 µM
SK-OV-3 ovarian
  GI50: 731 nM
  TGI: > 65.4 µM
HCT-15 colon
  GI50: 353 nM
  TGI: 23.9 µM
COLO 205 colon
  GI50: 227 nM
  TGI: 0.482 µM
SNB-19 CNS
  GI50: 0.455 µM
  TGI: > 81.8 µM
SK-MEL-2 melanoma
  GI50: 407 nM
  TGI: > 100 µM
NCI/ADR-RES ovarian
  GI50: 0.231 µM
  TGI: 0.583 µM
IGROV1 ovarian
  GI50: 421 nM
  TGI: > 46.7 µM
HT29 colon
  GI50: 298 nM
  TGI: 2.98 µM
HOP-62 NSCLC
  GI50: 565 nM
  TGI: 27.4 µM
SF-268 CNS
  GI50: 861 nM
  TGI: > 52.9 µM
A498 renal
  GI50: 23.6 µM
  TGI: > 69.6 µM
MCF7 breast
  GI50: 341 nM
  TGI: > 100 µM
786-0 renal
  GI50: 397 nM
  TGI: 6.15 µM
UO-31 renal
  GI50: 679 nM
  TGI: 28.8 µM
OVCAR-8 ovarian
  GI50: 0.297 µM
  TGI: 2.83 µM
NCI-H522 lung
  GI50: 177 nM
  TGI: 0.549 µM
SK-MEL-28 melanoma
  GI50: 1.12 µM
  TGI: 46.9 µM
HOP-92 NSCLC
  GI50: 1140 nM
  TGI: 32.7 µM
HCC-2998 colon
  GI50: 0.385 µM
  TGI: 18.5 µM
LOX IMVI melanoma
  GI50: 336 nM
  TGI: 16.3 µM

## COc1cc(Nc2nc(O)c(/C=C3\C=Nc4ccccc43)s2)cc(OC)c1OC
CAKI-1 renal
  GI50: 840 nM
  TGI: 10.3 µM
HCT-116 colon
  GI50: 1100 nM
  TGI: 10.2 µM
NCI-H226 lung
  GI50: 3180 nM
  TGI: 17.4 µM
NCI-H23 lung
  GI50: 5330 nM
  TGI: 21.1 µM
SR leukemia
  GI50: 394 nM
  TGI: 29.9 µM
SW-620 colon
  GI50: 3100 nM
  TGI: 21.8 µM
DU-145 prostate
  GI50: 4630 nM
  TGI: 17.2 µM
T-47D breast
  GI50: 3.58 µM
  TGI: 19.7 µM
OVCAR-5 ovarian
  GI50: 4580 nM
  TGI: 17.7 µM
MALME-3M melanoma
  GI50: 2010 nM
  TGI: 15.2 µM
NCI-H460 lung
  GI50: 2100 nM
  TGI: 14.3 µM
K-562 leukemia
  GI50: 526 nM
  TGI: 31.1 µM
SF-295 CNS
  GI50: 2270 nM
  TGI: 13.4 µM
MOLT-4 leukemia
  GI50: 2630 nM
  TGI: 26 µM
RXF 393 renal
  GI50: 1000 nM
  TGI: 5.8 µM
RPMI-8226 leukemia
  GI50: 5.73 µM
  TGI: > 100 µM
KM12 colon
  GI50: 977 nM
  TGI: 16.8 µM
TK-10 renal
  GI50: 8.56 µM
  TGI: 22.8 µM
PC-3 prostate
  GI50: 2590 nM
  TGI: 22.6 µM
BT-549 breast
  GI50: 810 nM
  TGI: 10.7 µM
SN12C renal
  GI50: 3850 nM
  TGI: 15.1 µM
ACHN renal
  GI50: 3200 nM
  TGI: 12 µM
SF-539 CNS
  GI50: 2490 nM
  TGI: 9.95 µM
MDA-MB-231 breast
  GI50: 4770 nM
  TGI: 18.8 µM
SNB-75 CNS
  GI50: 1240 nM
  TGI: 3.63 µM
SK-MEL-5 melanoma
  GI50: 2460 nM
  TGI: 14.1 µM
OVCAR-3 ovarian
  GI50: 517 nM
  TGI: 5.32 µM
HS 578T breast
  GI50: 2330 nM
  TGI: 11.9 µM
MDA-MB-435
  GI50: 280 nM
  TGI: 940 nM
HL-60(TB) leukemia
  GI50: 854 nM
  TGI: 11.1 µM
MDA-MB-468 breast
  GI50: 657 nM
  TGI: 6.23 µM
U251 CNS
  GI50: 3270 nM
  TGI: 15.7 µM
UACC-257 melanoma
  GI50: 5.18 µM
  TGI: 21.1 µM
M14 melanoma
  GI50: 2020 nM
  TGI: 15.9 µM
OVCAR-4 ovarian
  GI50: 2.88 µM
  TGI: 10.6 µM
EKVX NSCLC
  GI50: 8.02 µM
  TGI: 22.2 µM
A549 NSCLC
  GI50: 2840 nM
  TGI: 16.5 µM
UACC-62 melanoma
  GI50: 4750 nM
  TGI: 19.7 µM
CCRF-CEM leukemia
  GI50: 2090 nM
  TGI: > 100 µM
SK-OV-3 ovarian
  GI50: 2560 nM
  TGI: 10.3 µM
HCT-15 colon
  GI50: 1790 nM
  TGI: 12.4 µM
COLO 205 colon
  GI50: 3140 nM
  TGI: 16.4 µM
SNB-19 CNS
  GI50: 6.6 µM
  TGI: 21.2 µM
SK-MEL-2 melanoma
  GI50: 1450 nM
  TGI: 12.2 µM
NCI/ADR-RES ovarian
  GI50: 6.24 µM
  TGI: 24.2 µM
IGROV1 ovarian
  GI50: 4910 nM
  TGI: 21.6 µM
HT29 colon
  GI50: 923 nM
  TGI: 10.1 µM
HOP-62 NSCLC
  GI50: 2690 nM
  TGI: 15.7 µM
SF-268 CNS
  GI50: 3560 nM
  TGI: 20 µM
A498 renal
  GI50: 10.2 µM
  TGI: 24.6 µM
MCF7 breast
  GI50: 1790 nM
  TGI: 11.9 µM
786-0 renal
  GI50: 2720 nM
  TGI: 11.9 µM
UO-31 renal
  GI50: 3430 nM
  TGI: 13.7 µM
OVCAR-8 ovarian
  GI50: 10.6 µM
  TGI: 27.2 µM
NCI-H522 lung
  GI50: 403 nM
  TGI: 5.56 µM
SK-MEL-28 melanoma
  GI50: 6.07 µM
  TGI: 21 µM
HOP-92 NSCLC
  GI50: 1980 nM
  TGI: 6.38 µM
HCC-2998 colon
  GI50: 6.36 µM
  TGI: 20.7 µM
LOX IMVI melanoma
  GI50: 2820 nM
  TGI: 13.9 µM
